Consider six compounds from US20140094434A1, “AMINO ACID COMPOSITION” (AJINOMOTO CO., INC, priority 2011, published 2014).

One assay concerns isolated rat hepatocytes. The note with it: Biochem. J., 1991, 273: 57-62; cited from earlier work.
For assay [1] the following is noted: humans; ingestion of proline; Metabolism, 2004, 53(2): 241-246; cited from earlier work.
For another assay, the system named is Male C57BL/6J mice. Kind of assay: Spontaneous motor activity after 90 minutes treadmill running exercise. The format is in vivo, mouse. The note with it: Example 5, FIG. 8; oral dextrin 2 g/kg; measured for 3 hours after 90 minutes running; vs water administration. The protocol: Male C57BL/6J mice were habituated to a running exercise using a treadmill, and subjected to a test. The mice were fasted overnight, and orally administered (1) dextrin 2 g/kg, or (2) dextrin 1 g/kg and L-alanine (Ala) 1 g/kg. From 15 minutes after the administration, a 90 minutes running exercise was loaded at a rate of 26 m/minute using the treadmill. After exercise loading, the mice were transferred into a cage, and the motor activity was measured using a spontaneous motor activity monitor (NS-AS01: Neuroscience Inc.) for 3 hours (dextrin and dextrin+Ala in FIG. 8). As a control, the mice administered the above-mentioned (1) or (2) were administered water instead of (1) or (2), and the spontaneous motor activity was measured in the same manner (dextrin (water administration) and dextrin+Ala (water administration) in FIG. 8). In addition, the spontaneous motor activity of mice in a resting state after fasting overnight and free of the exercise loading was measured for 3 hours in the same manner (in rest in FIG. 8).

For the compound `C[C@H](N)C(=O)O` [alanine], the glycogen synthesis entry in the assay with isolated rat hepatocytes is listed as “enhance”. Take `NC(=O)C[C@H](N)C(=O)O` [asparagine]: the glycogen synthesis entry with isolated rat hepatocytes was “enhance”. On to `NC(=O)CC[C@H](N)C(=O)O` [glutamine], for which the glycogen synthesis entry with isolated rat hepatocytes was “enhance”. Turning to `N[C@@H](Cc1c[nH]cn1)C(=O)O` [histidine], in the assay on isolated rat hepatocytes, the glycogen synthesis result is on record as “enhance”. Turning to `O=C(O)[C@@H]1CCCN1` [proline], the glycogen synthesis result in the assay with isolated rat hepatocytes is “enhance”. Further, the “increase of blood glucose level after glucose ingestion” value in assay [1] is “suppresses”. As for dextrin, the “spontaneous motor activity after running exercise loading” value with Male C57BL/6J mice is recorded as “increased”.
